Laboratory results as given in publication PMC13184981, “Discovery and Development of a Potent LIMK2 Isoform-Specific Degrader” (ACS Chemical Biology, 2026).

What was measured:
Type in all cases: cell-based
EGFP–LIMK2 = biological target: T1, EGFP–LIMK2 (Homo sapiens, UniProt P53671); assay: EGFP-LIMK2 depletion live-cell assay (Incucyte)
T1 construct: P2A remnant (from EGFP-LIMK2-P2A-mCherry; that residues stay on LIMK2 after self-cleavage is own knowledge) (C); expressed in transfected cells; host or cells: HuCCT1 (lentiviral transduction, doxycycline-inducible pCW57 vector)
Procedure: To enable a more comprehensive and rapid evaluation of the synthesized PROTACs, we generated a stable, doxycycline-inducible HuCCT1 cell line that expressed an N-terminally fused EGFP–LIMK2 protein. […] The degradation activity of the synthesized PROTACs set was screened at five concentrations ranging from 1 nM to 1000 nM over 72 h using live-cell imaging (Figure E).
LIMK2 was cloned into pcDNA5-EGFP-NLS-P2A-mCherry-PTS1 (Addgene plasmid #87803) by replacing the NLS sequence with the LIMK2 sequence. pcDNA5-EGFP-NLS-P2A-mCherry-PTS1 was a gift from Andrea Musacchio. Subsequently, EGFP-[…]-P2A-mCherry was cloned into the lentiviral vector pCW57-MCS1-P2A-MCS2 (Hygro) (Addgene plasmid #80922) to generate pCW57-HygB-EGFP-LIMK2-P2A-mCherry. pCW57-MCS1-P2A-MCS2 (Hygro) was a gift from Adam Karpf.
HEK293T cells (ATCC, CRL-3216) were cultured in Dulbecco’s Modified Eagle’s Medium (DMEM), while HUCCT1 cells (ATCC, CRL-1997) were cultured in RPMI medium supplemented with 10% fetal bovine serum (FBS) and 1% penicillin/streptomycin (P/S) antibiotic mix (all from Sigma-Aldrich, St. Louis, Missouri, USA). Lentiviral particles were produced in HEK293T cells using pCW57-HygB-EGFP-LIMK2-[…]P2A-mCherry, pMD2.G, and psPAX2. HUCCT1 cells were transduced with lentivirus to express LIMK2.
Briefly, the cells were plated and propagated in 6-well plates overnight. The next day, transduction with viruses was performed. Two days later, transduced cells with pCW57-HygB-EGFP-LIMK2-P2A-mCherry plasmids were selected using 100 μg/mL Hygromycin B. After at least three passages, the cells were sorted for the same populations of RFP- and GFP-expressing cells using the SH800S Cell Sorter (Sony Biotechnology, San Jose, CA, USA). Stable pools of cells were maintained in the same medium used for selection.
To assess the turnover of LIMK2, we used the Incucyte S3 or XS5 live-cell imaging system and performed the assay as previously described. , Briefly, 2,000 HUCCT1 cells stably expressing EGFP-LIMK2-P2A-mCherry were seeded per well in a 384-well plate in 50 μL of RPMI medium supplemented with 10% fetal bovine serum (FBS) and 1% penicillin/streptomycin. Cells were incubated for 24 h before treatment. To induce LIMK2 expression, 1 μg/mL of doxycycline (Sigma-Aldrich, D9891–1G) was added at the time of seeding.
After 24 h, 50 μL of medium containing either 0.1% DMSO or the desired concentration of PROTACs was added. Fluorescence in three channels–GFP, RFP, and phase contrast (cell confluence)–was monitored every 2 h for 72 h using the Incucyte S3 or XS5 (Sartorius, Germany). LIMK2 turnover was quantified by calculating the ratio of total fluorescence intensity of RFP to GFP. Each time point represents the average ratio from three technical replicates.

LIMK1 = biological target: T2, LIMK1 (Homo sapiens, UniProt P53667); assay: Western blot of endogenous LIMK1 in HuCCT1 cells; settings: HuCCT1, 6 h treatment
T2 construct: host or cells: HEK293T
Procedure: HuCCT1 cell line was cultured in Roswell Park Memorial Institute (RPMI) 1640 medium supplemented with GlutaMAX, 10% fetal bovine serum (FBS), and 1% penicillin/streptomycin. The cell line was maintained in an incubator with 5% CO2 at 37 °C. For the treatment, 3 × 10^5 cells were plated and treated with the compounds and DMSO as the control for 6 h. The cells were then lysed using RIPA buffer (50 mM Tris-HCl pH 7.4, 150 mM NaCl, 1% Triton X-100, 1% NaDOC, 0.1% SDS, 1 mM EDTA), freshly supplemented with protease and phosphatase inhibitor cocktails (Sigma-Aldrich, Darmstadt, Germany). After 1 h incubation on ice, the lysates were centrifuged for 30 min at […], and the protein-containing supernatant was collected. The protein concentrations were determined using Protein Assay Dye Reagent Concentrate (Bradford, Bio-Rad, Hercules, CA, USA) and Pre-Diluted Protein Assay Standards: Bovine Serum Albumin (BSA) Set (Thermo Fisher Scientific, Darmstadt, Germany). Then, equal amounts of protein was mixed with Roti-Load 1 dye (Carl Roth, Karlsruhe, Germany) and 4x Laemmli Buffer (Bio-Rad, Hercules, CA, USA), denatured at 95 °C, and run on NuPAGE 4–12% bis-Tris gels (Thermo Fisher Scientific). Proteins were blotted on methanol-activated PVDF Transfer Membranes (Thermo Fisher Scientific) using the wet transfer method with the transfer buffer (Thermo Fisher Scientific) and 20% methanol. […]

LIMK2 = LIMK2 (Homo sapiens, UniProt P53671); assay: NanoBRET cellular target engagement, LIMK2; design: host or cells: HEK293T
Sequence of LIMK2 (P53671 whole entry): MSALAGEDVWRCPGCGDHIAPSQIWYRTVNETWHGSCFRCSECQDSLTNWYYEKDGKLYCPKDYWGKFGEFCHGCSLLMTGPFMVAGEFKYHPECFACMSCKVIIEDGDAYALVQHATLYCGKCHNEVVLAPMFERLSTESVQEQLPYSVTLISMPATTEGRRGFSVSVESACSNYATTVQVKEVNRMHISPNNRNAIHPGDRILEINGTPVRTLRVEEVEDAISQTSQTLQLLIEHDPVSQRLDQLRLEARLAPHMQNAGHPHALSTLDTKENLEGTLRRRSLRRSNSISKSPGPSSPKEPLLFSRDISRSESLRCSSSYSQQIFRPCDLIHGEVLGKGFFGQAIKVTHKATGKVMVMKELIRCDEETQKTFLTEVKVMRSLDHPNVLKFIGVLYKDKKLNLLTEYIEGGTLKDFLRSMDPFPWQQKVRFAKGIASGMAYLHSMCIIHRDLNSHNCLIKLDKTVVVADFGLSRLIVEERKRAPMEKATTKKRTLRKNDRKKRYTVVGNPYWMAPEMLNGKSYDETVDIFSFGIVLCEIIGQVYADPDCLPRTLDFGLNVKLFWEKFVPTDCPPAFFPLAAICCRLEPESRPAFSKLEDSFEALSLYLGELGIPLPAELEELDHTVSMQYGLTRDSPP
Procedure: Gene encoding LIMK1 (Promega, NV3391) and LIMK2 (Promega, NV1531), CRBN (Promega, N2741) proteins cloned in frame with NanoLuc fusion tag at the C-terminus, were transfected into HEK293T cells using FuGENE HD (Promega, E2312) following manufacture’s protocol and proteins were allowed to express for 20 h at 37 °C and 5% CO2. […] The 10 μL of transfected cells after trypsinization and resuspending in Opti-MEM (Life Technologies, 31985070) were dispensed into each well of the 384-well plate (Greiner 781207) at a cell density of 2 × 10^5 cells/mL. For dose–response BRET measurements, compounds at various concentrations, immediately followed by Tracer K10 (Promega, Tracer DB ID: T000008) for LIMK1 and LIMK2, CRBN Tracer (Promega, Tracer DB ID: T000018) for CRBN at an optimum KD concentration chosen from TracerDB (tracerdb.org), were pipetted using an Echo acoustic dispenser (Labcyte). The system was allowed to equilibrate for 2 h at 37 °C and 5% CO2 before BRET measurements. To measure BRET signal, the NanoBRET NanoGlo Substrate (Promega, N1573) was added as per the manufacturer’s protocol, and filtered luminescence was measured on a PHERAstar plate reader (BMG Labtech) equipped with a luminescence filter pair (450 nm BP filter (donor) and 610 nm LP filter (acceptor)). For lysed NanoBRET measurement, 25 nL of Digitonin (0.05 μg/μL) was pipetted to each well using Labcyte, and the plate was incubated for 5 min at 37 °C and 5% CO2. After incubation, the BRET signals were measured by a PHERAstar plate reader following the same procedure as intact NanoBRET measurement. […] The BRET ratios are normalized to both of them in the prism output data file. Competitive displacement data were then normalized to controls and were graphed using GraphPad Prism 9 software employing a normalized 3-parameter curve fit with the following equation: Y = 100/(1 + 10̂(X – logIC50)).

T1 sequence (P53671 whole entry): as above
T2 sequence (P53667 whole entry): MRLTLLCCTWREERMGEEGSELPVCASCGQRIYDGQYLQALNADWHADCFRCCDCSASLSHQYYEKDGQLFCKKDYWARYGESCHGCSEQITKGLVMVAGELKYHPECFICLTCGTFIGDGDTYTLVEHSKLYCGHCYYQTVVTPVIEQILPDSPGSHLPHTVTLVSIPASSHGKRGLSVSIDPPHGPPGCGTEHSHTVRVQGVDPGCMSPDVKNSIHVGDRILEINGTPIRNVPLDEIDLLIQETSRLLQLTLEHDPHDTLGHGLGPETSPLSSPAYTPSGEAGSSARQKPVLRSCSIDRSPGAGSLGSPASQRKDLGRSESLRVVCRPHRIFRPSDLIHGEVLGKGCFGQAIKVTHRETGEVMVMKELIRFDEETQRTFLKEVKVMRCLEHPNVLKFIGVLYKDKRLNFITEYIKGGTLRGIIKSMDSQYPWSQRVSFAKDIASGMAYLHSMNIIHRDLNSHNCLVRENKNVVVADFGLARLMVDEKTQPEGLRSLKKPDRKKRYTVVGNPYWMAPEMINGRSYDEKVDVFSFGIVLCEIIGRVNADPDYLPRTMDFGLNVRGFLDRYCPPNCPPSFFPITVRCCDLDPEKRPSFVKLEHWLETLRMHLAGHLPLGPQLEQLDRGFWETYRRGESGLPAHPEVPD

For Cc1c(OCc2cn(CCCCC(=O)Nc3ncc(-c4cc(C(F)F)nn4-c4c(Cl)cccc4Cl)s3)nn2)cccc1N1CCC(=O)NC1=O [22b], the Dmax (EGFP–LIMK2; 10 nM PROTAC) was 88.2%, the Dmax (EGFP–LIMK2; 100 nM PROTAC) was 97.6% and the Dmax (EGFP–LIMK2; 1000 nM PROTAC) was 98.5%. For the same molecule, the “time to maximum degradation after PROTAC treatment” value (EGFP–LIMK2; EGFP–LIMK2 monitored over 72 h) was “approximately 60 h”, the “EGFP–LIMK2 degradation with MLN4924 cotreatment” value (EGFP–LIMK2; PROTAC 10, 100 and 1000 nM + MLN4924 1 μM) was “no LIMK2 degradation” and the “LIMK1 degradation (Western blot)” value (LIMK1) was “LIMK1 protein levels remained unaffected”. The IC50 (LIMK2) was 80 nM and the “LIMK2 binary IC50 stronger than LIMK1” value (LIMK2; NanoBRET, LIMK2 vs LIMK1) was 5 fold.
